Residues, ends and D or L forms follow the SMILES beside them. *: point of attachment. Cbz = O=C(OCc1ccccc1)*
Tests used:
[1] = molecular target: T1, BTG-2 (Streptomyces griseocarneus, UniProt A0ABX7RSJ1); assay type: biochemical, Streptoverticillium griseocarneum IFO 12776; conditions: metal ion 1 mM; None = 100; 30 min
T1 construct: Ca2+-independent; made as pre-pro-protein
Description: (§1) Measurement of the activity of BTGase is carried out by performing a reaction using benzyloxycarbonyl-L-glutaminyl glycine and hydroxylamine as substrates in the absence of Ca^2+, forming an iron complex with the resulting hydroxamic acid in the presence of trichloroacetic acid, measuring absorption at 525 nm and determining the amount of hydroxamic acid by a calibration curve to calculate the activity. The BTGase activity is measured by the method described below, unless otherwise indicated.
(§2) To 0.05 ml of an enzyme solution is added 0.5 ml of Reagent A and they are mixed with each other. After reacting at 37° C. for 30 minutes, Reagent B is added thereto to discontinue the reaction and form an Fe complex. Thereafter, absorbance is measured at 525 nm. […] Separately, a calibration curve is prepared using L-glutamic acid γ-monohydroxamio acid instead of the enzyme solution, and the amount of hydroxamic acid produced is determined by the difference in absorbance described above. An enzyme activity which produces 1 μmol of hydroxamic acid per 1 minute is defined as 1 unit.

[2] = molecular target: T2, BTG-1 (Streptomyces mobaraensis, UniProt P81453); test: Influence of metal ions on activity; assay type: biochemical, Streptoverticillium mobaraense IFO 13819; conditions: metal ion 1 mM; None = 100; 30 min
T2 construct: BTGase is dissolved in the culture solution and can be harvested from the culture filtrate; endogenous in cells; host or cells: Streptoverticillium mobaraense IFO 13819 (natural producer; purified from culture filtrate)
T2 sequence (P81453 77-407): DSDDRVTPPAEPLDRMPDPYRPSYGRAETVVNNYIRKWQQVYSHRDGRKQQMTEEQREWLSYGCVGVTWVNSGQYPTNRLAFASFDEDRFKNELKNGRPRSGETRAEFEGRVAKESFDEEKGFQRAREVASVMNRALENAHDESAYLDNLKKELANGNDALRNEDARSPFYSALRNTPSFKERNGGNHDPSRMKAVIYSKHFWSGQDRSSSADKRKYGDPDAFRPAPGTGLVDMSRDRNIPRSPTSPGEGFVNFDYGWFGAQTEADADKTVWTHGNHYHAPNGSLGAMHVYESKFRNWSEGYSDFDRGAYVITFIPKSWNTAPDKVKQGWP
Description: as §1, §2

[3] = molecular target: T3, BTG-3 (Streptomyces cinnamoneus, UniProt Q8GR90); test: Influence of metal ions on activity; assay type: biochemical; conditions: metal ion 1 mM; None = 100; 30 min
T3 construct: Ca2+-independent; made as pre-pro-protein
T3 sequence (Q8GR90 86-416): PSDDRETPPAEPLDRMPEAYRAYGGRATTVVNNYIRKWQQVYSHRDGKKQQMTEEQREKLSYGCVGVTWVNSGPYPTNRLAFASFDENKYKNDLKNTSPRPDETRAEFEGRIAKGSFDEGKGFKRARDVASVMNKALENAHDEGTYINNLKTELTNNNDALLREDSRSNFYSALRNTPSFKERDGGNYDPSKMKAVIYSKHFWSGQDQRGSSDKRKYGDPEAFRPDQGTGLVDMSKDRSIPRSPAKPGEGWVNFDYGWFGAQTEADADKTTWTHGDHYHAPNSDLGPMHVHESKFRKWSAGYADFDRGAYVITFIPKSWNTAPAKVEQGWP
Description: as §1, §2

[4] = molecular target: T2, BTG-1; test: biochemical; design: species or system Streptoverticillium mobaraense IFO 13819; conditions: read-out: BTG-1 (%) activity with inhibitor
Description: as §1, §2

[5] = molecular target: T1, BTG-2; test: biochemical; design: species or system Streptoverticillium griseocarneum IFO 12776; conditions: read-out: BTG-2 (%) activity with inhibitor
Description: as §1, §2

[6] = molecular target: T3, BTG-3; test: biochemical; conditions: read-out: BTG-3 (%) activity with inhibitor
Description: as §1, §2

[7] = test system: all BTGases
[8] = molecular target: T2, BTG-1; test: Substrate specificity: synthetic substrates with hydroxylamine; assay type: biochemical, Streptoverticillium mobaraense IFO 13819; conditions: for Substrate specificity (%) BTG-1: Table 4; for Reactivity of substrate with BTG-1 (relative, Table 1): substrate 5 mM, with hydroxylamine
Description: as §1, §2
(§3) Using each BTGase, reactions of various synthetic substrates with hydroxylamine were examined. […] In this case, the concentration of various synthetic substrates is 5 mM. In the table, CBZ, Gln, Gly and Asn are abbreviations for benzyloxycarbonyl group, glutaminyl group, glycyl group and asparaginyl group, respectively.

[9] = molecular target: T1, BTG-2; test: as above; assay type: biochemical, Streptoverticillium griseocarneum IFO 12776; conditions: for Substrate specificity (%) BTG-2: Table 4; for Reactivity of substrate with BTG-2 (relative, Table 1): substrate 5 mM, with hydroxylamine
Description: as §1, §2, §3

[10] = molecular target: T3, BTG-3; test: as above; assay type: biochemical; conditions: for Substrate specificity (%) BTG-3: Table 4; for Reactivity of substrate with BTG-3 (relative, Table 1): substrate 5 mM, with hydroxylamine
Description: as §1, §2, §3

[11] = molecular target: T4, MTGase (transglutaminase of guinea pig liver) (UniProt P08587); test: Substrate specificity: synthetic substrates; assay type: biochemical; conditions: Table 4
T4 construct: from tissue; host or cells: guinea pig liver
T4 sequence (P08587 1-690): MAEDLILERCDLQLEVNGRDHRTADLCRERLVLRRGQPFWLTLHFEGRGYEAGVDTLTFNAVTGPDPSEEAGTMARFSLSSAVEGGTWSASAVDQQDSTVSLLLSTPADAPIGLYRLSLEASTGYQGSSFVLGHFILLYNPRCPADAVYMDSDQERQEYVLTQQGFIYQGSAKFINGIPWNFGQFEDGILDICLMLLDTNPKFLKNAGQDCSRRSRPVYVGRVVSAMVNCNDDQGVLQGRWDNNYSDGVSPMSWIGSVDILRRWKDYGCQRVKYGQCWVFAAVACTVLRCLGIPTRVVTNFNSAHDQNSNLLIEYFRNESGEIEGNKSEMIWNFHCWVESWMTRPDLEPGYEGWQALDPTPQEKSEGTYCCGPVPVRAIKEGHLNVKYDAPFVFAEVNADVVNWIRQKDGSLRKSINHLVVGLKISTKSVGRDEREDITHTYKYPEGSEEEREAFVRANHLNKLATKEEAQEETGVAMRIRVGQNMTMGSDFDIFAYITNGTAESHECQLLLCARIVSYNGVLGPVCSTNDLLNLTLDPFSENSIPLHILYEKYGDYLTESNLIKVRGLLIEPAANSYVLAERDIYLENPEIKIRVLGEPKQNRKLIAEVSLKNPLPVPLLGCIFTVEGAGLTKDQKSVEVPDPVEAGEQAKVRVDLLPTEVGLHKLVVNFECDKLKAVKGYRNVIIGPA
Description: Next, properties of BTGases are compared to those of guinea pig liver-derived transglutaminase. The guinea pig liver-derived transglutaminase was prepared by the method described in Published Unexamined Japanese Patent Application No. 149645/83. As will be apparent from Tables 4 and 5, various differences in enzymological properties are noted between transglutaminase of guinea pig liver (hereafter referred to as MTGase) which has been mainly investigated heretofore and BTGases derived from actinomycetes; in particular, differences are noted in temperature stability, molecular weight, isoelectric point and substrate specificity. Further, a difference is noted in that the BTGases of the present invention act in the presence and absence of Ca^2+. Therefore, the respective enzymes of the present invention are different from MTGase in their properties.

[12] = test system: BTGase; test: Substrate specificity, statement on all BTGases; assay type: biochemical, Streptoverticillium; conditions: substrate 5 mM, with hydroxylamine
Description: as §3

| Compound | BTG-2 (%) activity with metal ion [1] | BTG-3 (%) activity with metal ion [3] | Reactivity of substrate with BTG-1 (relative, Table 1) [8] | Reactivity of substrate with BTG-2 (relative, Table 1) [9] | Reactivity of substrate with BTG-3 (relative, Table 1) [10] | other results |
| --- | --- | --- | --- | --- | --- | --- |
| [Cl][Ni][Cl] [NiCl2] | 100% |  |  |  |  |  |
| CC(=O)[O-].CC(=O)[O-].[Pb+2] [Pb(CH3 COO)2] | 97% | 100% |  |  |  | BTG-1 (%) activity with metal ion [2]: 97% |
| O=C(O)CI [Monoiodoacetic acid] |  |  |  |  |  | inhibition at 1000 µM [4]: 64%; inhibition at 1000 µM [5]: 50%; inhibition at 1000 µM [6]: 67%; Effect of inhibitor on activity of all BTGases (in words) [7]: inhibited |
| [Cl][Mn][Cl] [MnCl2] | 97% | 97% |  |  |  |  |
| [Cl-].[Cl-].[Mg+2] [MgCl2] | 104% | 103% |  |  |  |  |
| NC(=O)CC[C@H](NC(=O)OCc1ccccc1)C(=O)NCC(=O)O [CBZ--Gln--Gly, benzyloxycarbonylglutaminyl glycine] (Cbz-Gln-Gly-OH) |  |  | 100 | 100 | 100 | Substrate specificity (%) BTG-1 [8]: 100%; Substrate specificity (%) BTG-2 [9]: 100%; Substrate specificity (%) BTG-3 [10]: 100%; Substrate specificity (%) MTGase [11]: 100%; Reactivity of synthetic substrate with the BTGases (in words) [12]: reactivity is the highest |
| [Ba+2].[Cl-].[Cl-] [BaCl2] | 99% | 105% |  |  |  | BTG-1 (%) activity with metal ion [2]: 101% |
| [Cl-].[K+] [KCl] | 99% | 105% |  |  |  | BTG-1 (%) activity with metal ion [2]: 96% |
| NC(=O)CC[C@H](NC(=O)CNC(=O)CNC(=O)OCc1ccccc1)C(=O)NCC(=O)O [CBZ--Gly--Gly--Gln--Gly] (Cbz-GGQG-OH) |  |  | 23 | 58 | 60 | Substrate specificity (%) BTG-1 [8]: 23%; Substrate specificity (%) BTG-2 [9]: 58%; Substrate specificity (%) BTG-3 [10]: 60%; Substrate specificity (%) MTGase [11]: 27% |
| NC(=O)CC[C@H](NC(=O)OCc1ccccc1)C(=O)O [CBZ--Gln, benzyloxycarbonyl glutamine] |  |  | 0 | 0 | 0 | Reactivity of synthetic substrate with the BTGases (in words) [12]: No BTGase reacts |
| NC(=O)C[C@H](NC(=O)OCc1ccccc1)C(=O)NCC(=O)O [CBZ--Asn--Gly, benzyloxycarbonylasparaginyl glycine] (Cbz-Asn-Gly-OH) |  |  | 0 | 0 | 0 | Reactivity of synthetic substrate with the BTGases (in words) [12]: No BTGase reacts |

Reference: patent US5156956A, “Transgultaminase” (Ajinomoto Co., Inc., priority 1987, dated 1992)
